From ChEMBL document CHEMBL1158083, “Indole alkaloids from Cephalanceropsis gracilis” (J Nat Prod, 2006)

How the values were obtained:
Assay type in all cases: functional, cell-based
[1] = tested on: SF-268; assay: Cytotoxicity against human SF-268 cells by MTT assay
[2] = tested on: NCI-H460; assay: Cytotoxicity against human NCI-H460 cells by MTT assay
[3] = tested on: MCF7; assay: Cytotoxicity against human MCF7 cells by MTT assay

SMILES: O=C1C(C2(C3(C4=Nc5ccccc5C4=O)Nc4ccccc4C3=O)Nc3ccccc3C2=O)=Nc2ccccc21 (stereo not drawn) [CEPHALINONE D]
- IC50 [1]: 12.2 µM
- IC50 [2]: 7.8 µM
- IC50 [3]: 7.57 µM
